This note sets out measurements from article PMC12856317, “A reversible feedback mechanism regulating mitochondrial heme synthesis” (The Journal of Biological Chemistry, 2025).

Experiment [1] deals with T1, holoALAS2 ΔN (residues 75–587) (Homo sapiens, UniProt P22557).
T1 construct: a truncation without HRM3 (ΔN, residues 75–587); His6-SUMO (N, cleaved yes); made in house; host or cells: Escherichia coli BL21-Codon Plus (DE3)-RIL
T1 sequence (P22557 75-587): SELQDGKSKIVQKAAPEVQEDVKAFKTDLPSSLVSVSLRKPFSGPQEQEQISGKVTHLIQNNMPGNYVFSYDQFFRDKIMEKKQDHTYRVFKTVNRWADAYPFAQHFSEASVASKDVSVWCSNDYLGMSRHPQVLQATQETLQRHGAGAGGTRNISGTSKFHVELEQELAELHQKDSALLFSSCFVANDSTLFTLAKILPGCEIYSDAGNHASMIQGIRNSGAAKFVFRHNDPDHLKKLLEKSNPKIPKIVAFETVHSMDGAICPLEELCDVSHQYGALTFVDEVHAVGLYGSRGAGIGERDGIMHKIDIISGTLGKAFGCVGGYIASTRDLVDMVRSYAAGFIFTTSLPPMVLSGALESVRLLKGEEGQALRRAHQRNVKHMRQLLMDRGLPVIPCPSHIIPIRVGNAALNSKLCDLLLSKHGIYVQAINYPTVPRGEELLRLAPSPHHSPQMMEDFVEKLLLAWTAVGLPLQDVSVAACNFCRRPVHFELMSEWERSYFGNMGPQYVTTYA
The experiment can be described thus: Colorimetric ALA release activity assay, hemin inhibition of holoenzyme. In kind it is biochemical. As for the experimental part:
(§1) A discontinuous colorimetric activity assay adapted from Shoolingin-Jordan et al. and Bailey et al. was used to measure the enzyme activity ([48], [74]). The reaction was initiated by adding 100 nM purified enzyme to 50 mM potassium phosphate, pH 7.0, 10 mM MgCl2, 1 mM DTT, 100 mM glycine, and 300 μM succinyl-CoA (175 μl total). The reaction was incubated at 37 °C for 15 min and terminated with 100 μl of cold 10% trichloroacetic acid. The precipitated protein was removed by centrifugation for 5 min at 13,000g, and 240 μl of the supernatant was mixed with 240 μl of 1 M sodium acetate, pH 4.6. To derivatize ALA, 20 μl of acetylacetone was added to the mixture and boiled at 100 °C for 10 min. After the sample was cooled for 20 min, 100 μl aliquots were transferred into a clear 96-well plate in triplicate. An equal volume of Ehrlich’s reagent (p-Dimethylaminobenzaldehyde, DMAB) was added to each well, and the absorbance was monitored at 553 nm using a microplate reader (Thermo Fisher Scientific). The peak absorbance value was converted to molar ALA concentration using ε553 = 60,400 M^−1 cm^−1.
Inhibition of enzyme activity was determined by titrating hemin (0.1 μM–60 μM) into the substrate mixture before initiating the reaction upon enzyme addition. Hemin was dissolved in 100% dimethyl sulfoxide (DMSO) (ε403 nm = 170,000 M^−1 cm^−1) and serially diluted in 100% DMSO to prepare stock solutions for each concentration. The final DMSO concentration in the reaction mixture was 2%. All experiments were performed with a minimum of three biological replicates, each with three technical replicates. Data were fitted using nonlinear regression to generate an inhibitor dose-response curve (IC50) or an agonist dose-response curve (EC50), and statistical significance was determined using a one-way ANOVA with GraphPad Prism 10.

Experiment [2] deals with T2, WT apoALAS2 (residues 54–587) (Homo sapiens, UniProt P22557).
T2 construct: His6-SUMO (N, cleaved yes); made in house; host or cells: Escherichia coli BL21-Codon Plus (DE3)-RIL
T2 sequence (P22557 54-587): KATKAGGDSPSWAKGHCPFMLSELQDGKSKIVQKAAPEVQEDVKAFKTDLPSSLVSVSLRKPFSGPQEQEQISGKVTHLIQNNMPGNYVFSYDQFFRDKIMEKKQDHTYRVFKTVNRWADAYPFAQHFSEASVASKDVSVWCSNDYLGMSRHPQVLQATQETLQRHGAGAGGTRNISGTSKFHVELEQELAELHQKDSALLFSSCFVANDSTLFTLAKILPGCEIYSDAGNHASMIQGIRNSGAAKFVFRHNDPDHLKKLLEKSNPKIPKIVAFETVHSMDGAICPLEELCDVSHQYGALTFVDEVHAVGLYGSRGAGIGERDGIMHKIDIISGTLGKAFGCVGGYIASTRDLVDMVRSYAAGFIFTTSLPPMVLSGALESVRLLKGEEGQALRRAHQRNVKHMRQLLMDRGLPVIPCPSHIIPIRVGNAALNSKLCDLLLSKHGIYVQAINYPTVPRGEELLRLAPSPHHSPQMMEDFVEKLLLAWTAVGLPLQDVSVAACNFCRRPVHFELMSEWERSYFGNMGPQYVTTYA
The experiment can be described thus: Inhibitor competition, apoenzyme reactivation by PLP with or without hemin. In kind it is biochemical. The note with it: for Vmax / Km: PLP varied; for Km: 95% confidence interval in brackets. As for the experimental part:
as §1
For inhibitor competition experiments, the apoenzymes were preincubated with hemin or PLP (0–100 μM) for 15 min at 25 °C in the dark before initiating the reaction. Next, either PLP or hemin (0–100 μM) was titrated into the reactions to measure enzyme activation after hemin inhibition or enzyme inhibition of the PLP-treated apoenzyme, respectively. For succinyl-CoA:hemin competition analyses, the WT holoenzyme was mixed with hemin (0, 25, 50, and 100 μM), followed by the addition of increasing succinyl-CoA concentrations (0, 25, 50, 100, 250, and 500 μM). All experiments were performed with a minimum of three biological replicates, each with three technical replicates. Data were fit using nonlinear regression to generate an agonist dose-response curve (EC50) or an inhibitor dose-response curve (IC50). Lineweaver-Burk analysis was performed using the resulting kinetic parameters (Vmax and KM) in GraphPad Prism 10.

On to ferric chloride heme [hemin], for which, in experiment [1] (ΔN versus WT), the “IC50 fold higher than WT” value was around 2 fold. The molecule further gave an IC50 in experiment [1] (ΔN, 0.1 μM–60 μM hemin titrated into holoenzyme) of 35.8 ± 0.4 µM. Also, in experiment [2] (WT apoenzyme, varied PLP, various heme concentrations up to 100-fold excess), the mode of inhibition result is listed as “mixed inhibitor”.

Regarding `Cc1ncc(COP(=O)(O)O)c(C=O)c1O` [PLP], the Vmax was 110.84 [123.30, 100.65] nmol/min/mg in experiment [2] (hemin 0 μM); 91.16 [97.56, 85.54] nmol/min/mg in experiment [2] (hemin 10 μM); 58.17 [67.25, 51.28] nmol/min/mg in experiment [2] (hemin 25 μM); 45.96 [99.50, 29.88] nmol/min/mg in experiment [2] (hemin 50 μM); 27.29 [41.39, 20.36] nmol/min/mg in experiment [2] (hemin 100 μM). Further, the Km was determined as 0.86 µM in experiment [2] (hemin 0 μM); 3.36 µM in experiment [2] (hemin 10 μM); 4.78 µM in experiment [2] (hemin 25 μM); 11.9 µM in experiment [2] (hemin 50 μM); 9.82 µM in experiment [2] (hemin 100 μM). Moreover, in experiment [2] (WT apoALAS2, PLP titration in the absence of heme), the “activation constant (Ka)” value amounted to 0.72 ± 0.08 µM. Besides, the EC50 in experiment [2] (WT apoALAS2, PLP titration in the presence of 50 μM hemin) is 7 ± 1 µM. In experiment [2] (WT apoenzyme preincubated with 50 μM heme, excess PLP), the apoenzyme activity restored is around 50%.
